{"source": "patent US20110306546A1", "about": "“COMPOSITIONS FOR INCREASING HAIR GROWTH AND DECREASING HAIR LOSS” (ALVI ARMANI GENOMICS INC., priority 2010, published 2011)", "data": [{"system": "Hair follicles (HF)", "experiment": "Hair follicle (HF) explant growth assay", "assay_type": "cell-based, human", "conditions": "HF elongation after 7-8 days; 20 ng/ml of each growth factor, hypoxanthine 2 μM; mean of 6-8 independent experiments", "description": "Hair follicles (HF) were extracted from the occipital area of 6-8 individuals with hair loss. The HFs were processed to equivalent lengths and cultured in William's E medium supplemented with 100 units/ml penicillin G, 100 μg/ml streptomycin, 0.25 μg/ml amphotericin B, […], 1 ng/ml hydrocortisone; basic medium or control medium or basic medium supplemented with 20 ng/ml of each of IGF-1, FGF-2, PDGF, Wnt-3A (Wnt), Noggin (Nog), Ephrin A3 (Eph), SHH and BMP-6 as well as hypoxanthine (Hyx) at 2 μM final concentration. The “GF10 cocktail” or “GF10” includes all nine growth factors and hypoxanthine while the “GF7 cocktail” or “GF7” contains six growth factors (all growth factors of GF10 except for FGF-10, Eph and SHH) and hypoxanthine. Growth promotion was measured as elongation of the HF at the end of 7-8 days. All growth factors and hypoxanthine promoted growth individually and in combination (FIG. 1 and Table 1).", "units": {"Increase in growth (% control) Mean": "% control"}, "values": [{"compound": "IGF1: insulin-like growth factors-1, cellular growth factor", "Increase in growth (% control) Mean": 39.31}, {"compound": "PDGF: platelet-derived growth factor-AA", "Increase in growth (% control) Mean": 69.56}, {"compound": "FGF2: fibroblast growth factor-2", "Increase in growth (% control) Mean": 146.474}, {"compound": "O=c1[nH]cnc2nc[nH]c12", "note": "[Hypx, hypoxanthine]", "Increase in growth (% control) Mean": 104.1618}]}]}
